The test has as its target T1, ΔF508-CFTR (Homo sapiens, UniProt P13569, DEL508-508).
T1 construct: expressed in transfected cells
The test can be described thus: ΔF508-CFTR correction, membrane potential optical (FRET/VIPR) assay. It is filed as cell-based. Particulars: NIH3T3 mouse fibroblasts stably expressing ΔF508-CFTR; for Emax: read-out: % Efficacy. An excerpt:
Assays for Detecting and Measuring ΔF508-CFTR Correction Properties of Compounds
Membrane potential optical methods for assaying ΔF508-CFTR modulation properties of compounds
The optical membrane potential assay utilized voltage-sensitive FRET sensors described by Gonzalez and Tsien (See Gonzalez, J. E. and R. Y. Tsien (1995) “Voltage sensing by fluorescence resonance energy transfer in single cells” Biophys J 69(4): 1272-80, and Gonzalez, J. E. and R. Y. Tsien (1997) “Improved indicators of cell membrane potential that use fluorescence resonance energy transfer” Chem Biol 4(4): 269-77) in combination with instrumentation for measuring fluorescence changes such as the Voltage/Ion Probe Reader (VIPR) (See Gonzalez, J. E., K. Oades, et al. (1999) “Cell-based assays and instrumentation for screening ion-channel targets” Drug Discov Today 4(9): 431-439).
These voltage sensitive assays are based on the change in fluorescence resonant energy transfer (FRET) between the membrane-soluble, voltage-sensitive dye, DiSBAC2(3), and a fluorescent phospholipid, CC2-DMPE, which is attached to the outer leaflet of the plasma membrane and acts as a FRET donor. Changes in membrane potential (Vm) cause the negatively charged DiSBAC2(3) to redistribute across the plasma membrane and the amount of energy transfer from CC2-DMPE changes accordingly. The changes in fluorescence emission were monitored using VIPR™ II, which is an integrated liquid handler and fluorescent detector designed to conduct cell-based screens in 96- or 384-well microtiter plates.
1. Identification of Correction Compounds
To identify small molecules that correct the trafficking defect associated with ΔF508-CFTR; a single-addition HTS assay format was developed. The cells were incubated in serum-free medium for 16 hrs at 37° C. in the presence or absence (negative control) of test compound. As a positive control, cells plated in 384-well plates were incubated for 16 hrs at 27° C. to “temperature-correct” ΔF508-CFTR. The cells were subsequently rinsed 3× with Krebs Ringers solution and loaded with the voltage-sensitive dyes. To activate ΔF508-CFTR, 10 μM forskolin and the CFTR potentiator, genistein (20 μM), were added along with Cl^−-free medium to each well. The addition of Cl^−-free medium promoted Cl^− efflux in response to ΔF508-CFTR activation and the resulting membrane depolarization was optically monitored using the FRET-based voltage-sensor dyes.
NIH3T3 mouse fibroblasts stably expressing ΔF508-CFTR are used for optical measurements of membrane potential. The cells are maintained at 37° C. in 5% CO2 and 90% humidity in Dulbecco's modified Eagle's medium supplemented with 2 mM glutamine, 10% fetal bovine serum, 1×NEAA, β-ME, 1× pen/strep, and 25 mM HEPES in 175 cm^2 culture flasks. For all optical assays, the cells were seeded at 30,000/well in 384-well matrigel-coated plates and cultured for 2 hrs at 37° C. before culturing at 27° C. for 24 hrs for the potentiator assay. For the correction assays, the cells are cultured at 27° C. or 37° C. with and without compounds for 16-24 hours Electrophysiological Assays for assaying ΔF508-CFTR modulation properties of compounds

T1 sequence (P13569 with tags, fused parts or gaps DEL508-508): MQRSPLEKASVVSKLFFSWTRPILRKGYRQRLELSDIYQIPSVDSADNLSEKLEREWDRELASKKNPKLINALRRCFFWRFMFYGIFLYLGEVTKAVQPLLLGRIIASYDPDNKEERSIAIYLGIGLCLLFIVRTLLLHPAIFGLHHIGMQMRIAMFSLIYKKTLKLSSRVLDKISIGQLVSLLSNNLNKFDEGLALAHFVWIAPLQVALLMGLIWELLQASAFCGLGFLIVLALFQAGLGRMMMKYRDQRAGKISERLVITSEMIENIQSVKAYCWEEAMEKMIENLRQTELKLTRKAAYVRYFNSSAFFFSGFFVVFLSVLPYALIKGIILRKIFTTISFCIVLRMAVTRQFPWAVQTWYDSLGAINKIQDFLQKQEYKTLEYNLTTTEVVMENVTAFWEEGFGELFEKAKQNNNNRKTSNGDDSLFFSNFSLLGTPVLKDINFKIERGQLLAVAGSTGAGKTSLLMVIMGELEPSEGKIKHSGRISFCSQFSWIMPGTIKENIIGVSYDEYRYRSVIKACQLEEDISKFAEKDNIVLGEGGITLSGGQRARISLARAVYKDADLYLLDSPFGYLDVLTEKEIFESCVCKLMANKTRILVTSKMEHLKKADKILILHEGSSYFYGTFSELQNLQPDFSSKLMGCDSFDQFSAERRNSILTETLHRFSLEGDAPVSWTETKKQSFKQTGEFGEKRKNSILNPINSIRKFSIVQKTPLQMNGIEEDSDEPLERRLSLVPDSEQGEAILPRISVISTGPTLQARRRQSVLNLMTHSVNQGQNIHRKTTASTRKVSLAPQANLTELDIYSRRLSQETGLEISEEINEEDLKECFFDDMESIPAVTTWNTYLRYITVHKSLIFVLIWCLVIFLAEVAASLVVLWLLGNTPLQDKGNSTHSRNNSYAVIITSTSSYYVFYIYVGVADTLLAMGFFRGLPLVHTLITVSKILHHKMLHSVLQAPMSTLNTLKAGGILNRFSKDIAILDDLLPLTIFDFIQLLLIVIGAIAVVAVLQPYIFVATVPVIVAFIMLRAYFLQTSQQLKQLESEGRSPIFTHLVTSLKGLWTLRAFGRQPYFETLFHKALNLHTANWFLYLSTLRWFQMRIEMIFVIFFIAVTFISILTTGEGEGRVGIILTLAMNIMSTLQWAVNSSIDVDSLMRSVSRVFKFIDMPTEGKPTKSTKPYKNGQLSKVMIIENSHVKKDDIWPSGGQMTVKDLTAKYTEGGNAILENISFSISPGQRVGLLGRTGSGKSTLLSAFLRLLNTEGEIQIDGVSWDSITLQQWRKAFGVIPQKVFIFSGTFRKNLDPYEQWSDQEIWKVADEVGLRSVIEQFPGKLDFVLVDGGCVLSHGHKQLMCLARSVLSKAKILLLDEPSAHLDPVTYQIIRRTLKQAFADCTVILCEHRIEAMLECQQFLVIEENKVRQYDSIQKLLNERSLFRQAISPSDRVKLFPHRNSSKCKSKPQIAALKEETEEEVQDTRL

`COc1ncc(C)cc1-c1cc(C)cc(NC(=O)C2(c3ccc4c(c3)OC(F)(F)O4)CC2)n1` [Compound 87]: the EC50 was less than 2000 nM and the Emax was more than 100%.
For `COc1ncc(C)cc1-c1nc(NC(=O)C2(c3ccc4c(c3)OC(F)(F)O4)CC2)cc(C)c1C` [Compound 88], in that order: less than 2000 nM and more than 100%.
For `COc1cc(C)c(-c2nc(NC(=O)C3(c4ccc5c(c4)OC(F)(F)O5)CC3)cc(C)c2C)cn1` [Compound 89], in that order: less than 2000 nM and more than 100%.
For `Cc1cc(=O)[nH]cc1-c1nc(NC(=O)C2(c3ccc4c(c3)OC(F)(F)O4)CC2)cc(C)c1C` [Compound 90], in that order: less than 2000 nM and more than 100%.
With `Cc1c[nH]c(=O)c(-c2nc(NC(=O)C3(c4ccc5c(c4)OC(F)(F)O5)CC3)cc(C)c2C)c1` [Compound 91], the EC50 was less than 2000 nM and the Emax is more than 100%.
In the same order, the values of `Cc1cc(NC(=O)C2(c3ccc4c(c3)OC(F)(F)O4)CC2)nc(-c2cc(C)c[nH]c2=O)c1` [Compound 92] are less than 2000 nM and 50 to 100%.
With `COc1ncccc1-c1cccc(NC(=O)C2(c3ccc4c(c3)OCO4)CC2)n1` [Compound 93], the EC50 was less than 2000 nM and the Emax was more than 100%.
Turning to `COc1ccc(-c2cccc(NC(=O)C3(c4ccc5c(c4)OCO5)CC3)n2)cn1` [Compound 94], the EC50 lay in the range of 2000 to 5000 nM and the Emax was more than 100%.
For `Cc1ccc(NC(=O)C2(c3ccc4c(c3)OC(F)(F)O4)CC2)nc1-c1ccc(=O)n(CCS(C)(=O)=O)c1` [Compound 95], in that order: less than 2000 nM and more than 100%.
For the molecule `Cc1cc(NC(=O)C2(c3ccc4c(c3)OC(F)(F)O4)CC2)nc(-c2ccc(=O)[nH]c2)c1C#N` [Compound 96], the EC50 was less than 2000 nM and the Emax is more than 100%.
In the same order, the values of `Cc1ccc(NC(=O)C2(c3ccc4c(c3)OC(F)(F)O4)CC2)nc1-c1ccc(=O)n(CC#N)c1` [Compound 97] are less than 2000 nM and 50 to 100%.
In the same order, the values of `Cc1cc(NC(=O)C2(c3ccc4c(c3)OCC4)CC2)nc(-c2ccc(=O)[nH]c2)c1` [Compound 98] are less than 2000 nM and 50 to 100%.
For `Cc1ccc(NC(=O)C2(c3ccc4c(c3)OCC4)CC2)nc1-c1ccc(=O)[nH]c1` [Compound 99], in that order: less than 2000 nM and more than 100%.
For the molecule `COc1ncccc1-c1nc(NC(=O)C2(c3ccc4c(c3)CCO4)CC2)cc(C)c1C` [Compound 100], the EC50 was less than 2000 nM and the Emax is more than 100%.
On to `COc1ccc(-c2nc(NC(=O)C3(c4ccc5c(c4)CCO5)CC3)cc(C)c2C)cn1` [Compound 101], for which the EC50 is less than 2000 nM and the Emax was more than 100%.
In the same order, the values of `COc1cc(-c2nc(NC(=O)C3(c4ccc5c(c4)CCO5)CC3)cc(C)c2C)ccn1` [Compound 102] are less than 2000 nM and 50 to 100%.
For the molecule `COc1ccc(-c2nc(NC(=O)C3(c4ccc5c(c4)OC(F)(F)O5)CC3)cc(C)c2C)c(C)n1` [Compound 103], the EC50 was less than 2000 nM and the Emax was more than 100%.
In the same order, the values of `COc1ncc(-c2nc(NC(=O)C3(c4ccc5c(c4)OC(F)(F)O5)CC3)cc(C)c2C)cc1C` [Compound 104] are less than 2000 nM and 50 to 100%.
Take `COc1cc(-c2nc(NC(=O)C3(c4ccc5c(c4)OC(F)(F)O5)CC3)ccc2C)cc(C)n1` [Compound 105]: the EC50 is less than 2000 nM and the Emax is 50 to 100%.
For `Cc1cc(-c2nc(NC(=O)C3(c4ccc5c(c4)OC(F)(F)O5)CC3)ccc2C)cc(=O)[nH]1` [Compound 106], in that order: less than 2000 nM and more than 100%.
For `Cc1cc(NC(=O)C2(c3ccc4c(c3)OC(F)(F)O4)CC2)nc(-c2c[nH]c(=O)c(C)c2)c1` [Compound 107], in that order: less than 2000 nM and more than 100%.
In the same order, the values of `Cc1cc(NC(=O)C2(c3ccc4c(c3)OC(F)(F)O4)CC2)nc(-c2ccc(=O)[nH]c2C)c1C` [Compound 108] are less than 2000 nM and more than 100%.
On to `Cc1cc(NC(=O)C2(c3ccc4c(c3)CCO4)CC2)nc(-c2cc[nH]c(=O)c2)c1C` [Compound 109], for which the EC50 is less than 2000 nM and the Emax lay in the range of 50 to 100%.
Take `COC(=O)Cn1cc(-c2nc(NC(=O)C3(c4ccc5c(c4)OC(F)(F)O5)CC3)ccc2C)cc(C#N)c1=O` [Compound 110]: the EC50 was less than 2000 nM and the Emax lay within 50 to 100%.
In the same order, the values of `Cc1cc(NC(=O)C2(c3ccc4c(c3)OC(F)(F)O4)CC2)nc(-c2c[nH]c(=O)c(C)c2)c1C` [Compound 111] are less than 2000 nM and more than 100%.
As for `Cc1cc(NC(=O)C2(c3ccc4c(c3)CCO4)CC2)nc(-c2ccc(=O)[nH]c2)c1C` [Compound 112], the EC50 was less than 2000 nM and the Emax was 50 to 100%.
For `Cc1cc(NC(=O)C2(c3ccc4c(c3)OC(F)(F)O4)CC2)nc(-c2c[nH]c(=O)cc2C)c1` [Compound 113], the concentration giving a half-maximal response (EC50) was less than 2000 nM and the Emax is more than 100%.
In the same order, the values of `Cc1cc(NC(=O)C2(c3ccc4c(c3)CCO4)CC2)nc(-c2ccc[nH]c2=O)c1C` [Compound 114] are less than 2000 nM and 50 to 100%.
In the same order, the values of `Cc1ccc(NC(=O)C2(c3ccc4c(c3)CCC4)CC2)nc1-c1ccc(=O)[nH]c1` [Compound 115] are less than 2000 nM and 50 to 100%.
For `Cc1cc(-c2nc(NC(=O)C3(c4ccc5c(c4)OC(F)(F)O5)CC3)ccc2C)c(=O)n(CCO)c1` [Compound 116], the EC50 is less than 2000 nM and the Emax was more than 100%.
Consider `Cc1cc(NC(=O)C2(c3ccc4c(c3)OC(F)(F)O4)CC2)nc(-c2ccc(=O)[nH]c2C)c1` [Compound 117], for which the half-maximal effective concentration (EC50) was less than 2000 nM and the Emax is more than 100%.

Source of the values: US8969386B2, “Modulators of CFTR” (Vertex Pharmaceuticals Incorporated, priority 2007, dated 2015).
